# Bridge positions count the residues as written; N and C are the ends. Primed or numbered codes have the meaning given here. Peptide text beside a SMILES is read from it. C(Alexa680) = cysteine labeled with Alexa680 (AlexaFluor680); PEG6′ = PEG6 spacer
# Tests used:
# anti-ALFA VHH = experiment: binding affinity to the anti-ALFA VHH (log(agonist) vs. response, variable slope); conditions: for LogEC50: best-fit values, log(agonist) vs. response, variable slope; for EC50: binding to anti-ALFA VHH
# [1] = Plasma stability, human plasma; conditions: for remaining at 24 h, 10 µM / remaining at 2 h, 10 µM / remaining at 6 h, 10 µM / half-life: human; for remaining at 24 h, 10 µM: Li-heparin plasma; for remaining at 2 h, 10 µM / remaining at 6 h, 10 µM: human Li-heparin plasma; for half-life: plasma
# Method: (§1) Plasma stability measurements were performed by spiking 5 μl of a 1 mM compound stock solution in DMSO into 495 μl of human or mouse Li-heparin plasma (Innovative Research, Cat. No, IPLALIH5OML (human) and IMS-BC-N (Balb C mouse). The spiked plasma was distributed in 50 μl aliquots into capped PCR tubes for incubation at 37° C. At each time point (0, 2, 6, 24 hours*) 3*aliquots were withdrawn from the incubator. Enzymatic reactions were quenched directly after withdrawal by adding 100 μl of acetonitrile/formic acid=99/1 (v/v). Quenched samples were stored at ambient temperature until the end of the incubation period (24 hrs*). After centrifugation, the supernatant was transferred into fresh vials and analyzed by LC-MS/MS in ESI positive mode (Waters ACQUITY UPLC I-Class System (SM-FTN) with Xevo TQD triple quadrupole mass spectrometer with control software Waters MassLynx). […] Values below the limit of quantification (0.1 μM) and outliers of triplicate results were excluded from further calculations. An exponential regression curve was fitted onto the concentration results. Half-life times were calculated from the slope of the regression curve (t1/2=ln(2)/slope).
# (§2) For some samples, as indicated below, the incubation time was 6 hours. The 24 hour data was measured in triplicates whereas the 6 hour data was measured in duplicates.
# NbALFA = experiment: SPR measurements of NbALFA binding (Biacore T200, multi cycle kinetics, 1:1 binding model); conditions: for Kd / ka / kd: 25° C., HBS-EP+ buffer, biotinylated NbALFA captured
# Method: Affinity measurements were performed using a Biacore T200 (GE Healthcare, Biacore T200 control Software 3.2). […] A freshly docked Biotin CAPture chip was rehydrated overnight in the instrument (standby mode). […] The immobilization of the Nanobody was done for 180 s at 10 μL/min on FC2 followed by quenching of unbound streptavidin by 0.1 mM biocytin for 60 s and 30 μL/min on both flow cells. […] After each cycle, the surface was regenerated for 120 s with 10 μL/min using regeneration solution. All measurements were performed at 25° C. using HBS-EP+ buffer (Cytiva Europe, Cat. no BR100669). The control responses from FC1 were subtracted by the sample measurement in FC2 (FC2−FC1) followed by subtraction of the 0 nM blank injection. Resulting binding curves of this multi cycle kinetic experiment were fitted using the Biacore T200 Evaluation Software 3.2 and a 1:1 binding model.
# [2] = Plasma stability, mouse plasma; conditions: for remaining at 2 h, 10 µM / remaining at 6 h, 10 µM / remaining at 24 h, 10 µM: Balb C, Li-heparin plasma; for remaining at 2 h, 10 µM / remaining at 6 h, 10 µM / remaining at 24 h, 10 µM / half-life: mouse; for half-life: plasma
# Method: as §1, §2
# [3] = system: target expressing cells previously incubated with the NbALFA×anti-Target Adaptor-Protein; experiment: FACS cell binding analysis of linear and cyclic ALFA-peptides (AlexaFluor680); format: cell-based; conditions: for binding to target expressing cells (AlexaFluor680 signal): 4 nM to 1024 nM peptide, 30 min at 4° C., after 100 nM NbALFA×anti-Target Adaptor-Protein; for binding on the controls: target-negative cells, pre-incubation with PBS or NbALFA×non-binder
# Method: Cells were seeded in a 96-well microtiter plate (round button) to a final density of 2×10^5 and incubated in the presence of 100 nM NbALFA×anti-Target purified Adaptor-Protein (binds with one moiety to ALFA peptide and with the other moiety to cell presented target) or, as a negative control in the presence of 100 nM NbALFA×non-binder (binds with one moiety to the ALFA peptide and with the other moiety to a target which is not available in this experiment) or PBS for 30 min at 4° C. Cells were then washed and incubated with different concentrations (4 nM, 16 nM, 64 nM, 256 nM, and 1024 nM) of the linear [Ac(C-Alexa680)(PEG6)PSRLEEELRRRLTE-NH2] or cyclic [Ac(C-Alexa680)(PEG6)PSRLE(E)ELR(K)RLTE-NH2] ALFA peptide for another 30 min at 4° C. After rewashing, the cells were measured in FACS Canto II (BD Biosciences). AlexaFluor680 signal was used to detect the binding of ALFA peptides. Therefore, excitation Laser Line 633 nm was used to detect the AlexaFluor 680 signal.
# [4] = human plasma, 37° C., timepoint 0 h
# [5] = human plasma, 37° C., timepoint 0 h, calibration range 0.1 to 10 μM
# [6] = human plasma, 37° C., timepoint 2 h
# [7] = human plasma, 37° C., timepoint 6 h
# [8] = human plasma, 37° C., timepoint 24 h
# [9] = Half-life time, human plasma, 37° C., incubation 24 h (triplicates) or 6 h (duplicates)
# [10] = mouse plasma, 37° C., timepoint 0 h
# [11] = mouse plasma, 37° C., timepoint 0 h, calibration range 0.1 to 10 μM
# [12] = mouse plasma, 37° C., timepoint 2 h
# [13] = mouse plasma, 37° C., timepoint 6 h
# [14] = mouse plasma, 37° C., timepoint 24 h
# [15] = Flag (half-life, assay exceeded), mouse plasma, 37° C.
# [16] = Half-life time, mouse plasma, 37° C., incubation 24 h (triplicates) or 6 h (duplicates)
molecule,measurement,setting,value
"CC(=O)N[C@@H](CO)C(=O)N[C@@H](CCCNC(=N)N)C(=O)N[C@@H](CC(C)C)C(=O)N[C@@H](CCC(=O)O)C(=O)N[C@H]1CCC(=O)NCCCC[C@@H](C(=O)N[C@@H](CCCNC(=N)N)C(=O)N[C@@H](CC(C)C)C(=O)N[C@H](C(=O)N[C@@H](CCC(=O)O)C(N)=O)[C@@H](C)O)NC(=O)[C@H](CCCNC(=N)N)NC(=O)[C@H](CC(C)C)NC(=O)[C@H](CCC(=O)O)NC1=O [SD15194, Ac-Ser-Arg-Leu-Glu-(cyclo5)Glu-Glu-Leu-Arg-(cyclo9)Lys-Arg-Leu-Thr-Glu-NH2] (Ac-SRLEEELRKRLTE-NH2; lactam 5-9)",LogEC50,anti-ALFA VHH,0.7763
same,EC50,anti-ALFA VHH,5.97 nM
same,EC50,anti-ALFA VHH; listed as Ac_5E-9Cyclo_ALFA,6 nM
same,Half-life time,"[1]; human plasma, 37° C., incubation 24 h (triplicates) or 6 h (duplicates), listed as SD 00015194",33.48 h
same,Conc. (% of T0),[1]; [4],100.0 % of T0
same,Mean (compound concentration),[1]; [4],2.26
same,Tube 2 (compound concentration),[1]; [4],2.271
same,Tube 3 (compound concentration),[1]; [4],2.302
same,Tube 1 (compound concentration),[1]; [5],2.215
same,Mean (compound concentration),[1]; [6],2.09
same,Tube 1 (compound concentration),[1]; [6],2.086
same,Tube 2 (compound concentration),[1]; [6],2.052
same,Tube 3 (compound concentration),[1]; [6],2.117
same,Mean (compound concentration),[1]; [7],1.99
same,Tube 1 (compound concentration),[1]; [7],1.884
same,Tube 2 (compound concentration),[1]; [7],2.057
same,Tube 3 (compound concentration),[1]; [7],2.041
same,Mean (compound concentration),[1]; [8],1.36
same,Tube 1 (compound concentration),[1]; [8],1.322
same,Tube 2 (compound concentration),[1]; [8],1.377
same,Tube 3 (compound concentration),[1]; [8],1.368
same,"remaining at 24 h, 10 µM",[1],59.9%
same,"remaining at 2 h, 10 µM",[1],92.1%
same,"remaining at 6 h, 10 µM",[1],88.1%
same,half-life,"[1]; Flag (half-life, assay exceeded), human plasma, 37° C.",> 24 h
same,half-life,[1]; [9],> 24 h
same,Kd,NbALFA,0.0376 nM
same,ka,NbALFA,1.78e+07 M⁻¹ s⁻¹
same,kd,NbALFA,0.00067 s⁻¹
same,binding with respect to NbALFA,NbALFA; in words,very good binding
same,"remaining at 2 h, 10 µM",[2],95.5%
same,"remaining at 6 h, 10 µM",[2],85.4%
same,"remaining at 24 h, 10 µM",[2],62.3%
same,Half-life time,"[2]; mouse plasma, 37° C., incubation 24 h (triplicates) or 6 h (duplicates), listed as SD 00015194",35.69 h
same,Conc. (% of T0),[2]; [10],100.0 % of T0
same,Mean (compound concentration),[2]; [10],2.57
same,Tube 2 (compound concentration),[2]; [10],2.488
same,Tube 3 (compound concentration),[2]; [10],2.617
same,Tube 1 (compound concentration),[2]; [11],2.606
same,Mean (compound concentration),[2]; [12],2.46
same,Tube 1 (compound concentration),[2]; [12],2.526
same,Tube 2 (compound concentration),[2]; [12],2.467
same,Tube 3 (compound concentration),[2]; [12],2.373
same,Mean (compound concentration),[2]; [13],2.20
same,Tube 1 (compound concentration),[2]; [13],2.178
same,Tube 2 (compound concentration),[2]; [13],2.256
same,Tube 3 (compound concentration),[2]; [13],2.154
same,Mean (compound concentration),[2]; [14],1.60
same,Tube 1 (compound concentration),[2]; [14],1.543
same,Tube 2 (compound concentration),[2]; [14],1.638
same,Tube 3 (compound concentration),[2]; [14],1.62
same,half-life,[2]; [15],> 24 h
same,half-life,[2]; [16],> 24 h
"CC(=O)N[C@@H](CO)C(=O)N[C@@H](CCCNC(=N)N)C(=O)N[C@@H](CC(C)C)C(=O)N[C@@H](CCC(=O)O)C(=O)N[C@H]1CC(=O)NCCCC[C@@H](C(=O)N[C@@H](CCCNC(=N)N)C(=O)N[C@@H](CC(C)C)C(=O)N[C@H](C(=O)N[C@@H](CCC(=O)O)C(N)=O)[C@@H](C)O)NC(=O)[C@H](CCCNC(=N)N)NC(=O)[C@H](CC(C)C)NC(=O)[C@H](CCC(=O)O)NC1=O [SD15196, Ac-Ser-Arg-Leu-Glu-(cyclo5)Asp-Glu-Leu-Arg-(cyclo9)Lys-Arg-Leu-Thr-Glu-NH2] (Ac-SRLEDELRKRLTE-NH2; lactam 5-9)",LogEC50,anti-ALFA VHH,2.576
same,EC50,anti-ALFA VHH,377 nM
same,Conc. (% of T0),[1]; [4],100.0 % of T0
same,Mean (compound concentration),[1]; [4],2.42
same,Tube 2 (compound concentration),[1]; [4],2.424
same,Tube 3 (compound concentration),[1]; [4],2.518
same,Tube 1 (compound concentration),[1]; [5],2.314
same,Mean (compound concentration),[1]; [6],2.21
same,Tube 1 (compound concentration),[1]; [6],2.188
same,Tube 2 (compound concentration),[1]; [6],2.234
same,Tube 3 (compound concentration),[1]; [6],2.212
same,Mean (compound concentration),[1]; [7],1.73
same,Tube 1 (compound concentration),[1]; [7],1.843
same,Tube 2 (compound concentration),[1]; [7],1.803
same,Tube 3 (compound concentration),[1]; [7],1.545
same,Mean (compound concentration),[1]; [8],0.77
same,Tube 1 (compound concentration),[1]; [8],0.844
same,Tube 2 (compound concentration),[1]; [8],0.761
same,Tube 3 (compound concentration),[1]; [8],0.694
same,"remaining at 24 h, 10 µM","[1]; Conc. (% of T0), human plasma, 37° C., timepoint 24 h",31.7%
same,"remaining at 2 h, 10 µM","[1]; Conc. (% of T0), human plasma, 37° C., timepoint 2 h",91.4%
same,"remaining at 6 h, 10 µM","[1]; Conc. (% of T0), human plasma, 37° C., timepoint 6 h",71.5%
same,half-life,[1]; [9],14.5 h
same,Kd,NbALFA,0.436 nM
same,ka,NbALFA,1.81e+07 M⁻¹ s⁻¹
same,kd,NbALFA,0.0079 s⁻¹
same,"remaining at 2 h, 10 µM",[2],94.3%
same,"remaining at 6 h, 10 µM",[2],80.5%
same,"remaining at 24 h, 10 µM",[2],52.5%
same,Conc. (% of T0),[2]; [10],100.0 % of T0
same,Mean (compound concentration),[2]; [10],2.42
same,Tube 2 (compound concentration),[2]; [10],2.424
same,Tube 3 (compound concentration),[2]; [10],2.497
same,Tube 1 (compound concentration),[2]; [11],2.336
same,Mean (compound concentration),[2]; [12],2.28
same,Tube 1 (compound concentration),[2]; [12],2.277
same,Tube 2 (compound concentration),[2]; [12],2.329
same,Tube 3 (compound concentration),[2]; [12],2.237
same,Mean (compound concentration),[2]; [13],1.95
same,Tube 1 (compound concentration),[2]; [13],1.96
same,Tube 2 (compound concentration),[2]; [13],2.008
same,Tube 3 (compound concentration),[2]; [13],1.874
same,Mean (compound concentration),[2]; [14],1.27
same,Tube 1 (compound concentration),[2]; [14],1.334
same,Tube 2 (compound concentration),[2]; [14],1.273
same,Tube 3 (compound concentration),[2]; [14],1.201
same,half-life,[2]; [15],> 24 h
same,half-life,[2]; [16],26.2 h
Ac(C-Alexa680)(PEG6)PSRLE(E)ELR(K)RLTE-NH2 [cyclic ALFA peptide],binding to target expressing cells (AlexaFluor680 signal),[3],bind only to target expressing cells previously incubated with the NbALFA×anti-Target Adaptor-Protein
same,binding on the controls,[3],No binding
"Ac(C-Alexa680)(PEG6)PSRLEEELRRRLTE-NH2 ({Ac-C(Alexa680)-PEG6′}-PSRLEEELRRRLTE-NH2) [linear ALFA peptide, linear ALFA-peptide conjugated to AlexaFluor680, reference compound]",binding to target expressing cells (AlexaFluor680 signal),[3],bind only to target expressing cells previously incubated with the NbALFA×anti-Target Adaptor-Protein
same,binding on the controls,[3],No binding
